Data set [1] deals with lipid peroxidation in retina homogenate. In words: Test for evaluating tissue distribution: ex vivo inhibition of lipid peroxidation, retina. The format is in vivo, rat. Conditions: SD male rats, oral administration, one hour after administration, with feeding. The procedure: (§1) (Test for Evaluating Tissue Distribution)
(§2) The tissue distribution properties of the compound of the present invention were evaluated by measuring the ex vivo inhibition of lipid peroxidation.
(§3) The compound of the present invention was dissolved in DMSO (final concentration: 20%), and then dissolved or suspended in a 0.1N hydrochloric acid physiological saline solution or a 1% polyethylene hardened castor oil (NIKOL HCO-60, manufactured by Nikko Chemicals Co., Ltd.)
This solution was administered orally, at a dose of 30 mg/kg, to either a group of three SD male rats (Japan SLC, 6 weeks old) that had been feed-deprived for 24 hours, or a group of three SD male rats (Japan SLC, 6 weeks old) that had not been feed-deprived. One hour after administration and following anesthetization, the brains and eyeballs were removed. Using the method disclosed above in the section relating to the “test for evaluating in vitro inhibition of lipid peroxidation”, the brains, and the retinas separated from the eyeballs were homogenized, and the quantity of lipid peroxide within each tissue homogenate was then measured.
(§4) The inhibition rate of the compound of the present invention within each of the tissues was determined from the quantities of lipid peroxide generated in a control group (20% DMSO-0.1N hydrochloric acid physiological saline solution/1% polyethylene hardened castor oil) and in the group administered with the compound of the present invention.

Data set [2] can be described thus: Test for evaluating oral absorption: serum concentration by HPLC. The format is in vivo, rat. The note with it: SD male rats, oral 30 mg/kg, one hour after administration. The procedure: (Test for Evaluating Oral Absorption)
The absorption of the compound of the present invention upon oral administration was evaluated in rats.
The compound of the present invention was dissolved in DMSO (final concentration: 20%), and then dissolved or suspended in a 0.1N hydrochloric acid physiological saline solution or a 1% polyethylene hardened castor oil (NIKOL HCO-60, manufactured by Nikko Chemicals Co., Ltd.).
This solution was administered orally, at a dose of 30 mg/kg, to a group of three SD male rats (Japan SLC, 6 weeks old). One hour after administration and following anesthetization, blood was collected from the abdominal vena cava in a plastic blood collection tube containing a serum separating agent. The blood sample was left to stand for approximately one hour, and following clotting, the serum was obtained by conducting a centrifugal separation at 3,000 rpm for a period of 10 minutes. […] The quantity of the compound of the present invention that existed within this filtered solution was measured by high-performance liquid chromatography (HPLC), under the conditions shown below. […]
The filtered solution for HPLC described in the previous paragraph was measured using the following representative conditions. […]

The test system of data set [3] is lipid peroxidation in pig retina homogenate. Description: Test for evaluating in vitro inhibition of lipid peroxidation (thiobarbituric acid method). The format is biochemical. The note with it: 500 μM cysteine and 5 μM FeSO4, 30 minutes at 37° C., malondialdehyde, read-out: in vitro inhibition of lipid peroxidation (50% inhibition concentration IC50). The procedure:
(Test for Evaluating in vitro Inhibition of Lipid Peroxidation)
Evaluation of the in vitro inhibition of lipid peroxidation of the compound of the present invention was conducted in accordance with the method disclosed by Malvy et al. (Malvy, C., et al., Biochemical and Biophysical Research Communications, 1980, vol. 95, pp. 734 to 737).
As the organ, retinas that had been separated from pig eyeballs and subsequently stored at −80° C. were used. At the time of use, a 5-fold excess of a phosphate-buffered physiological saline solution (pH 7.4) was added, and the mixture was homogenized using a microhomogenizer (PHYSCOTRON, NITI-ON).
To this pig retina homogenate were added 0.15M KCl, the compound of the present invention, 500 μM cysteine and 5 μM FeSO4, and the mixture was then incubated for 30 minutes at 37° C.
The malondialdehyde generated upon decomposition of the lipid peroxide was measured using the thiobarbituric acid method. Based on the measured values, the 50% inhibition concentration (hereafter also referred to as “IC50”) of the compound of the present invention was determined.

Data set [4] deals with lipid peroxidation in brain homogenate. In words: Test for evaluating tissue distribution: ex vivo inhibition of lipid peroxidation, brain. The format is in vivo, rat. Conditions: SD male rats, oral 30 mg/kg, one hour after administration, fasting. How it is done:
as §1, §2, §3
This solution was administered orally, at a dose of 30 mg/kg, to either a group of three SD male rats (Japan SLC, 6 weeks old) that had been feed-deprived for 24 hours, or a group of three SD male rats (Japan SLC, 6 weeks old) that had not been feed-deprived. […] Using the method disclosed above in the section relating to the “test for evaluating in vitro inhibition of lipid peroxidation”, the brains, and the retinas separated from the eyeballs were homogenized, and the quantity of lipid peroxide within each tissue homogenate was then measured.
as §4

Each structure is given as a SMILES string.

On to `Cc1c(C)c2c(c(CN)c1N)CC(C)(C)O2` [Compound R-1, reference compound], for which the “ex vivo inhibition of lipid peroxidation 50% inhibition quantity (ID50) Retina” value in data set [1] is 72 (with feeding) mg/kg. For the same compound, the serum concentration entry in data set [2] was “Below detection limit”. The IC50 in data set [3] worked out at 300 nM.

For the compound `Cc1c(C)c2c(c(CCc3ccccc3)c1N)CC(C)(C)O2` [Compound 83, 2,2,6,7-tetramethyl-4-phenylethyl-5-aminodihydrobenzofuran], the “ex vivo inhibition of lipid peroxidation 50% inhibition quantity (ID50) Retina” value in data set [1] is reported as 67 (with feeding) mg/kg. The “ex vivo inhibition of lipid peroxidation inhibition rate (%) Brain” value in data set [4] was 96 (fasting) %. Besides, the IC50 in data set [3] was 260 nM.

With `Cc1c(C)c2c(c(CNc3ccc(-c4ccn[nH]4)cc3)c1N)CC(C)(C)O2` [Compound 29, 5-(4-(5-amino-2,2,6,7-tetramethyldihydrobenzofuran-4-ylmethylamino)phenyl)pyrazole], in data set [1], the “ex vivo inhibition of lipid peroxidation 50% inhibition quantity (ID50) Retina” value is 60 (with feeding) mg/kg. For the same compound, in data set [2] (rat, serum), the concentration at 1 h is 2400 nM.
